Earlier results as cited in patent US6949260B2, “Method for treatment of inflammation and pain in mammals” (Metagenics, Inc., priority 2000, dated 2005).

How the values were obtained:
human platelet = settings: induced by arachidonic acid, adrenaline and collagen
[1] = tested on: thromboxane B2 production; settings: in vitro

COc1cc(/C=C/C(=O)CC(=O)/C=C/c2ccc(O)c(OC)c2)ccc1O [Curcumin]
inhibition of human platelet aggregation (human platelet): inhibit human platelet aggregation | thromboxane B2 production from arachidonic acid [1]: inhibits thromboxane B2 production
